Measurements as given in publication PMC6934184, “Selective DNA-PKcs inhibition extends the therapeutic index of localized radiotherapy and chemotherapy” (The Journal of Clinical Investigation, 2019).

Target: T1, CDK9 (Inactive) (Homo sapiens, UniProt P50750)
T1 construct: purchased Thermo Fisher Scientific (Life Technologies) SelectScreen
Test: SelectScreen LanthaScreen
Type: binding
Conditions: read-out: % displacement
Summary of the method: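 SelectScreen broad panel; activity (Z'LYTE, Adapta) plus binding formats. ATP: Km app for CSF1R Z'LYTE; 10 for CAMK1 Adapta. Readout = % per kinase.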

T1 sequence (P50750 whole entry): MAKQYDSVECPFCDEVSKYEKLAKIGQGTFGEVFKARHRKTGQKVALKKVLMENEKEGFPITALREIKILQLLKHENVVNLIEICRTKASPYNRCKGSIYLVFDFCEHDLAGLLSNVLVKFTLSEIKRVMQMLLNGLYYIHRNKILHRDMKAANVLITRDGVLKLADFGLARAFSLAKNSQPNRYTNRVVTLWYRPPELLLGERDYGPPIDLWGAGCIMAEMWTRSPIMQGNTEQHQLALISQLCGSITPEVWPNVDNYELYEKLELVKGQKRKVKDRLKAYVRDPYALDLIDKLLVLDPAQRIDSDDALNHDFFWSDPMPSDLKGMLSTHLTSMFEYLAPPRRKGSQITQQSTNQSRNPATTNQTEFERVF

Compound: CN(C(=O)CN1CCOCC1)c1ccc2sc3c(-c4cccc5c(=O)cc(N6CC7CCC(C6)O7)oc45)cccc3c2c1 [NU5455]
- inhibition at 1 µM: 9%
